According to PubChem BioAssay AID2060510 (Molecular Pharmacology Branch, DTP, NCI, 2025):

System: 439559-082-T-J2-PDC spheroids viability
Assay: Anticancer human tumor 439559-082-T-J2-PDC patient-derived colon adenocarcinoma cell line growth inhibition [GQUAD]
Conditions: for IC50: curve of first compound; for viability, T/C: stronger effect = lower value; active = viability on the fitted dose curve at most 10% of control; inactive = the rest
Description: DNA G-quadruplex Stabilizer Agents in Combinations in Complex Spheroids
A high-throughput screen of multi-cell type tumor spheroids was designed to identify active combinations of DNA G-quadruplex stabilizer agents and targeted small molecules. Complex spheroids include a stromal component modeled by human endothelial cells (HUVEC) and fibroblasts modeled by human mesenchymal stem cells (MSCs). The concentration ranges selected for each drug and investigational agent were based upon clinically achievable concentrations if the clinical Cmax of the agent was known.
Compounds. The drugs and investigational agents: pidnarulex (CX-5461; NSC782164), APTO-253 (NSC789042), BRACO-19 (NSC847499), peposertib (NSC802822), ceralasertib (NSC780249), elimusertib (NSC800525), camonsertib (NSC841442), AZD-1390 (NSC803789), olaparib (NSC753686), talazoparib (NSC767125), ART-558 (NSC835418), sotorasib (NSC818433), MRTX-1133 (NSC836407), SN-38 (NSC673596), topotecan (NSC609699), etoposide (NSC141540), doxorubicin (NSC123127), gemcitabine (NSC613327), 5-fluorouracil (NSC19893), paclitaxel (NSC125973), vemurafenib (NSC761431), panobinostat (NSC761190), R-306465 (JNJ-16241199; NSC773264), adavosertib (NSC754352), TP-3654 (NSC805149), carboplatin (NSC241240), KSQ-4279 (NSC840948), and staurosporine (NSC755774) were obtained from the National Cancer Institute (NCI) Developmental Therapeutics Program Chemical Repository (34). The FDA-approved anticancer drug set is available from the NCI Developmental Therapeutics Program. […] The stock solutions were prepared in dimethyl sulfoxide (DMSO, Sigma-Aldrich, St. Louis, MO, cat. D2650) at 800-fold the tested concentration and stored at -70 degrees C prior to their use. All drugs and investigational agents were tested over a range starting from a high concentration at or near the clinical Cmax and decreasing in half-log increments. If the clinical Cmax for an agent had not been determined, the highest concentration tested was 10 microM.
2.3 Cell Culture. All cells were maintained in an incubator at 37 degrees C and 5% CO2 with 95% humidity. The PDC lines were cultured according to standard operating procedures established by the NCI PDMR. All PDCs were thawed and cultured in Matrigel-coated flasks prepared with a working solution of 1X Ham's F-12 nutrient mix, without supplementation (Invitrogen, cat. 11765054), 100 U/mL penicillin-streptomycin (Invitrogen, cat. 15140122), and 2.5% Matrigel (Corning Inc., cat. 354248) for the first three passages. The 857933-349-R-J2-PDC line was cultured in 6C/Colon 1B media, which includes advanced DMEM/F-12 (Thermo Fisher Scientific, cat. 12634028), 10 mM HEPES (Thermo Fisher Scientific, cat. 15630080), 1X GlutaMAX supplement (Thermo Fisher Scientific, cat. 35050061), 0.1 mg/mL primocin (InvivoGen, cat. ant-pm-2), 10% defined fetal bovine serum, heat inactivated (HyClone Laboratories Inc., cat. SH30070.03HI), 50% L-WRN conditioned media (ATCC, cat. CRL-3276), 1.25 mM N-Acetyl-L-cysteine (Sigma-Aldrich, cat. A9165), 10 mM nicotinamide (Sigma-Aldrich, cat. N0636), 1X B-27 supplement (Thermo Fisher Scientific, cat. 17504044), 1X N-2 supplement (Thermo Fisher Scientific, cat. 17502048), 10 microM Y-27632 dihydrochloride (Tocris Bioscience, cat. 1254), and 50 ng/mL human EGF recombinant protein (Thermo Fisher Scientific, cat. PHG0311). The 485176-168-R4-J1-PDC line was cultured in Panc media, which includes all 6C/Colon 1B media components plus 100 ng/mL human FGF-10 (Thermo Fisher Scientific, cat. 100-26), 500 nM SB-431542 (Selleckchem, cat. S1067), and gastrin (Tocris, cat. 3006).
[…]
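Note: spheroids exposed to the agents for 7 days before readout.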
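Throughout, for viability, T/C: percent of luminescence signal in DMSO vehicle wells taken as 100% viability.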

COc1cccc2c1C(=O)c1c(O)c3c(c(O)c1C2=O)CC(O)(C(=O)CO)CC3OC1CC(N)C(O)C(C)O1 (configuration not stated) + Cc1cnc(CNC(=O)c2c(=O)c3ccc(N4CCCN(C)CC4)nc3n3c2sc2ccccc23)cn1
5.35 µM: IC50 (second compound 0.1 µM)
7.15 µM: IC50 (second compound 0.316 µM)
4.05 µM: IC50 (second compound 0.0316 µM)
3.83 µM: IC50 (second compound 10 µM)
4.51 µM: IC50 (second compound 3.16 µM)
inactive: viability, T/C (second compound 0.0316 µM, first compound 0.0316 µM) 99% | viability, T/C (second compound 0.0316 µM, first compound 0.1 µM) 95.1% | viability, T/C (second compound 0.0316 µM, first compound 0.316 µM) 87.3% | viability, T/C (second compound 0.0316 µM, first compound 1 µM) 77.6% | viability, T/C (second compound 0.0316 µM, first compound 3.16 µM) 48.9% | viability, T/C (second compound 0.0316 µM, first compound 10 µM) 45.3% | viability, T/C (second compound 0.1 µM, first compound 0.0316 µM) 101% | viability, T/C (second compound 0.1 µM, first compound 0.1 µM) 96.7% | viability, T/C (second compound 0.1 µM, first compound 0.316 µM) 89.6% | viability, T/C (second compound 0.1 µM, first compound 1 µM) 70.3% | viability, T/C (second compound 0.1 µM, first compound 3.16 µM) 54.3% | viability, T/C (second compound 0.1 µM, first compound 10 µM) 45.3% | viability, T/C (second compound 0.316 µM, first compound 0.0316 µM) 79.9% | viability, T/C (second compound 0.316 µM, first compound 0.1 µM) 73% | viability, T/C (second compound 0.316 µM, first compound 0.316 µM) 69.6% | viability, T/C (second compound 0.316 µM, first compound 1 µM) 79.3% | viability, T/C (second compound 0.316 µM, first compound 3.16 µM) 57.2% | viability, T/C (second compound 0.316 µM, first compound 10 µM) 45.9% | viability, T/C (second compound 1 µM, first compound 0.0316 µM) 70% | viability, T/C (second compound 1 µM, first compound 0.1 µM) 73.3% | viability, T/C (second compound 1 µM, first compound 0.316 µM) 69.7% | viability, T/C (second compound 1 µM, first compound 1 µM) 63.6% | viability, T/C (second compound 1 µM, first compound 3.16 µM) 61.6% | viability, T/C (second compound 1 µM, first compound 10 µM) 44.7% | viability, T/C (second compound 3.16 µM, first compound 0.0316 µM) 71% | viability, T/C (second compound 3.16 µM, first compound 0.1 µM) 67.2% | viability, T/C (second compound 3.16 µM, first compound 0.316 µM) 65% | viability, T/C (second compound 3.16 µM, first compound 1 µM) 60.3% | viability, T/C (second compound 3.16 µM, first compound 3.16 µM) 55.3% | viability, T/C (second compound 3.16 µM, first compound 10 µM) 41.1% | viability, T/C (second compound 10 µM, first compound 0.0316 µM) 63.3% | viability, T/C (second compound 10 µM, first compound 0.1 µM) 67.7% | viability, T/C (second compound 10 µM, first compound 0.316 µM) 63.1% | viability, T/C (second compound 10 µM, first compound 1 µM) 54.2% | viability, T/C (second compound 10 µM, first compound 3.16 µM) 51% | viability, T/C (second compound 10 µM, first compound 10 µM) 44.2%
6.8 µM: IC50 (second compound 1 µM)
